Laboratory results from paper PMC4775402 (Pharmacological research, 2016).

Experiments:
[1] = molecular target: WT HTR2A (Homo sapiens, UniProt P28223); assay: Label-free DMR agonist response, HEK293T expressing WT HTR2A; format: cell-based; conditions: time to peak DMR
[2] = molecular target: ΔPDZ HTR2A (Homo sapiens, UniProt P28223); assay: Label-free DMR agonist response, HEK293T expressing ΔPDZ HTR2A; format: cell-based
Sequence of ΔPDZ HTR2A (P28223 1-467 limits assumed, stated change not applied): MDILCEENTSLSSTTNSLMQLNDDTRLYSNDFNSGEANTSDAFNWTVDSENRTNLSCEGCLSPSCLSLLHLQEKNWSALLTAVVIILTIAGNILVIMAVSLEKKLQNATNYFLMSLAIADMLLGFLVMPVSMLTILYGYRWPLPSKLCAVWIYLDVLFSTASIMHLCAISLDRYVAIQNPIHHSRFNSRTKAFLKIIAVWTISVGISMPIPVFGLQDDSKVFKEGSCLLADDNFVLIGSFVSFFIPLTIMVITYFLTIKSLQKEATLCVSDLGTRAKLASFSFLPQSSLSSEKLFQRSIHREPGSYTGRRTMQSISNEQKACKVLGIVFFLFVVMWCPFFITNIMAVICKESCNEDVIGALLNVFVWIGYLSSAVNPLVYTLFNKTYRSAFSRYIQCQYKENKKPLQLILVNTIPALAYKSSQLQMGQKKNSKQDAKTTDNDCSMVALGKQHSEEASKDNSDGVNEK

Sequence of WT HTR2A (P28223 whole entry): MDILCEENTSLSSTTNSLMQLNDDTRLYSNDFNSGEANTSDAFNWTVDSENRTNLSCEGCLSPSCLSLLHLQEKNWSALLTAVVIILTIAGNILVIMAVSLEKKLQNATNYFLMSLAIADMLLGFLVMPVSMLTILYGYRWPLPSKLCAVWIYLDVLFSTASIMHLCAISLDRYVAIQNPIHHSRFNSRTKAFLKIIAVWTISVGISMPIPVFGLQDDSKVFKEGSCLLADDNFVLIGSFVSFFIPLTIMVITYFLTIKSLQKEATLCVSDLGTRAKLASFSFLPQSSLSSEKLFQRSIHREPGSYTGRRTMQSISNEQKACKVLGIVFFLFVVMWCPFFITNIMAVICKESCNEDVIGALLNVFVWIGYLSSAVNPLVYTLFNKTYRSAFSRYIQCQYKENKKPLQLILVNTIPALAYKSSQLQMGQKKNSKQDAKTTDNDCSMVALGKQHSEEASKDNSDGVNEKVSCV

Structure (SMILES): Cl.NCCc1c[nH]c2ccc(O)cc12 [5-hydroxytryptamine, 5-hydroxytryptamine hydrochloride]
- WT TTP [1]: 14.10 s
- ΔPDZ Max (DMR) ([2]; maximal agonist DMR response): 106.10 ± 3.96
- ΔPDZ TTP ([2]; time to peak DMR): 14.70 s
